These results are taken from ChEMBL document CHEMBL5634120, “Natural phytoalexins inspired the discovery of new biphenyls as potent antifungal agents for treatment of invasive fungal infections” (Eur J Med Chem, 2023).

Data set [1] concerns Cryptococcus neoformans. In words: Fungicidal activity against Cryptococcus neoformans ATCC32045 incubated for 72 hrs. It is filed as functional.
In data set [2] the test system is Cell membrane. Briefly: Disruption of membrane integrity in Cryptococcus neoformans ATCC32045 assessed as red fluorescence at 2 ug/ml incubated for 4 hrs by PI staining based fluorescence microscopic analysis. It is filed as subcellular. As to conditions: dose 2.0 µg/ml.
Data set [3] has as its system Cell membrane. Briefly: Disruption of cell membrane in Cryptococcus neoformans ATCC32045 assessed as cell wrinkling at 2 ug/ml incubated for 12 hrs by scanning electron microscopy analysis. It is filed as subcellular. As to conditions: dose 2.0 µg/ml.
For data set [4], the system named is Cryptococcus neoformans. In words: Antifungal activity against Cryptococcus neoformans ATCC32045 assessed as inhibition of melanin production at 8 ug/ml. The note with it: dose 8.0 µg/ml. The data set is classed as functional, organism-based.
For data set [5], the system named is Cell membrane. Briefly: Disruption of membrane integrity in Cryptococcus neoformans ATCC32045 assessed as blue fluorescence at 2 ug/ml incubated for 4 hrs by DAPI staining based fluorescence microscopic analysis. The note with it: dose 2.0 µg/ml. It is filed as subcellular.
For a further data set, the system named is Aspergillus fumigatus. Briefly: Antifungal activity against Aspergillus fumigatus AS3.3913 assessed as inhibition of fungal growth incubated for 72 hrs by broth microdilution method. It is filed as functional.
In data set [6] the test system is Cryptococcus neoformans. In words: Antifungal activity against Cryptococcus neoformans ATCC32045 assessed as inhibition of urease production at 2 ug/ml. The data set is classed as functional, organism-based. As to conditions: dose 2.0 µg/ml.
Data set [7] relates to Cryptococcus neoformans. In words: Fungicidal activity against Cryptococcus neoformans ATCC32045 assessed as reduction in viable colony counts at 0.5 to 1 ug/ml observed within 4 hrs by time kill assay (reference value: 6 log10CFU/ml). The note with it: dose 0.5-1 µg/ml. It is filed as functional.
The test system of the next data set is Candida tropicalis. In words: Antifungal activity against Candida tropicalis ATCC1369 assessed as inhibition of fungal growth incubated for 72 hrs by broth microdilution method. It is filed as functional.
For data set [8], the system named is Cryptococcus neoformans. Briefly: Disruption of 24 hrs preformed biofilm in Cryptococcus neoformans ATCC32045 incubated for 24 hrs by XTT reduction assay. It is filed as functional, organism-based. As to conditions: dose 0.125-8 µg/ml.
In data set [9] the test system is Cell membrane. Briefly: Disruption of cell membrane in Cryptococcus neoformans ATCC32045 assessed as cell shrinkage at 2 ug/ml incubated for 12 hrs by scanning electron microscopy analysis. As to conditions: dose 2.0 µg/ml. It is filed as subcellular.
Another data set relates to Candida albicans. Briefly: Antifungal activity against Candida albicans ATCC10231 assessed as inhibition of fungal growth incubated for 72 hrs by broth microdilution method. The data set is classed as functional.
In data set [10] the test system is Cryptococcus neoformans. Briefly: Antibiofilm activity against Cryptococcus neoformans ATCC32045 assessed as inhibition of biofilm formation at >=4 ug/ml incubated for 24 hrs by XTT reduction assay relative to control. The data set is classed as functional. As to conditions: dose >= 4 µg/ml.
The subject of data set [11] is Cell membrane. In words: Disruption of cell membrane in Cryptococcus neoformans ATCC32045 assessed as cell disintegration at 2 ug/ml incubated for 12 hrs by scanning electron microscopy analysis. The data set is classed as subcellular. As to conditions: dose 2.0 µg/ml.
The subject of data set [12] is Cryptococcus neoformans. In words: Fungicidal activity against Cryptococcus neoformans ATCC32045 assessed as reduction in viable colony count incubated for 12 hrs by time kill assay. The data set is classed as functional, organism-based.
Data set [13] has as its system Cryptococcus neoformans. Briefly: Selectivity ratio of MFC for Cryptococcus neoformans ATCC32045 to MIC for Cryptococcus neoformans ATCC32045. It is filed as functional.
Data set [14] has as its system Cryptococcus neoformans. Briefly: Antibiofilm activity against Cryptococcus neoformans ATCC32045 assessed as inhibition of biofilm formation incubated for 24 hrs by XTT reduction assay. It is filed as functional, organism-based. The note with it: dose 0.125-8 µg/ml.
Data set [15] relates to Cryptococcus neoformans. In words: Antibiofilm activity against Cryptococcus neoformans ATCC32045 assessed as reduction in 24 hrs preformed biofilm at 1 ug/ml incubated for 24 hrs by XTT reduction assay relative to control. The data set is classed as functional. Further details: scale not given: the % may be the effect or the level left. The note with it: dose 1 µg/ml.
Data set [16] concerns Cryptococcus neoformans. Briefly: Antifungal activity against Cryptococcus neoformans ATCC32045 assessed as inhibition of fungal growth incubated for 72 hrs by broth microdilution method. The data set is classed as functional.
A short description of data set [17]: Cytotoxicity against HUVEC cells assessed as inhibition of cell viability incubated for 24 hrs by CCK-8 assay. The data set is classed as toxicity, cell-based. The note with it: human.
The nature of data set [18]: Selectivity index, ratio of CC50 for HUVEC cells to MIC for antifungal activity against Cryptococcus neoformans ATCC32045. It is filed as toxicity. The note with it: human, read-out: Selectivity Index.

Structures are written as SMILES. Converted amounts (≈) assume the structure as drawn. The source made the active and inactive calls. No cut-off for these calls is given here.

Regarding `CCCCCc1ccc(-c2cc(O)cc(O)c2)cc1`, the MFC against Cryptococcus neoformans [1] came to 1 µg/mL (≈ 3.9 µM). Further, the result with Cell membrane [2], in the data set on Cell membrane [3], in the data set on Cryptococcus neoformans [4], in the data set on Cell membrane [5], in the data set on Cryptococcus neoformans [6] and in the data set on Cell membrane [9] was Active. The result with Cell membrane [11] was Active. The MIC with Aspergillus fumigatus was 8 µg/mL (≈ 31.2 µM); in the data set on Candida tropicalis, 1 µg/mL (≈ 3.9 µM); in the data set on Candida albicans it was 2 µg/mL (≈ 7.8 µM); in the data set on Cryptococcus neoformans [16], 0.25 µg/mL (≈ 0.975 µM). Also, the Activity in the data set with Cryptococcus neoformans [7] was 4 log10CFU/ml; with Cryptococcus neoformans [8], “Dose-Dependent Effect”; in the data set on Cryptococcus neoformans [12], “Dose-Dependent Effect”; in the data set on Cryptococcus neoformans [14], “Dose-Dependent Effect”; with Cryptococcus neoformans [15] it was about 71.6%. Also, in the data set with Cryptococcus neoformans [10], the “inhibition (INH)” value is about 100%. In addition, the Selectivity ratio with Cryptococcus neoformans [13] is given as 4. Besides, the CC50 at 24 h in [17] came out at 19.4 µg/mL (≈ 75.7 µM).

For the molecule `C[C@@H]1[C@H](O)[C@@H](C)/C=C/C=C/C=C/C=C/C=C/C=C/C=C/[C@H](O[C@@H]2O[C@H](C)[C@@H](O)[C@H](N)[C@@H]2O)C[C@@H]2O[C@](O)(C[C@@H](O)C[C@@H](O)[C@H](O)CC[C@@H](O)C[C@@H](O)CC(=O)O[C@H]1C)C[C@H](O)[C@H]2C(=O)O` [AMPHOTERICIN B], the MFC against Cryptococcus neoformans [1] came to 2 µg/mL (≈ 2.16 µM). Also, the result with Cell membrane [2] and in the data set on Cell membrane [5] was Active. Besides, the MIC in the data set on Aspergillus fumigatus amounted to 2 µg/mL (≈ 2.16 µM); with Candida tropicalis it was 0.5 µg/mL (≈ 0.541 µM); in the data set on Candida albicans, 0.5 µg/mL (≈ 0.541 µM); with Cryptococcus neoformans [16], 0.25 µg/mL (≈ 0.271 µM). Besides, the Activity was 4 log10CFU/ml in the data set with Cryptococcus neoformans [7] and “Dose-Dependent Effect” in the data set with Cryptococcus neoformans [12]. In [18], the Selectivity ratio amounted to 16. Further, the CC50 at 24 h in data set [17] worked out at 4.12 µg/mL (≈ 4.46 µM).
